From patent publication US11759455B2, “Substituted 1H-imidazo[4,5-b]pyridin-2(3H)-ones and their use as GLUN2B receptor modulators” (JANSSEN PHARMACEUTICA NV, priority 2016, dated 2023)
Read-outs that look alike come from different tables or passages of the source.

Target: T1, human GluN1/GluN2B NMDA receptors (Homo sapiens, UniProt Q13224)
T1 construct: expressed in transfected cells
Test: Cell-based calcium flux (FLIPR) assay on cloned human NR1/NR2B ion channels expressed in mammalian cells (standard and HTS buffer variants);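 note: stable Tet-On inducible cell line, Ca2+ influx triggered by glutamate at about EC40 plus 10 µM glycine, fluorescent dye read-out over 5 min, normalized to control wells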

[1] = standard assay buffer (0.5 mM MgCl2 dye loading; 137 mM NaCl, 4 mM KCl assay buffer), human GluN1/GluN2B cells, read-out: NR2B IC50 (μM) standard assay
[2] = HTS assay buffer (1.5 mM MgCl2 in dye loading buffer; 150 mM NaCl, 3 mM KCl in assay buffer), human GluN1/GluN2B, read-out: NR2B IC50 (μM) HTS assay
[3] = standard assay buffer (0.5 mM MgCl2 in dye loading buffer; 137 mM NaCl, 4 mM KCl in assay buffer), human GluN1/GluN2B, read-out: NR2B IC50 (μM) standard assay

T1 sequence (Q13224 27-1484, other chains not shown): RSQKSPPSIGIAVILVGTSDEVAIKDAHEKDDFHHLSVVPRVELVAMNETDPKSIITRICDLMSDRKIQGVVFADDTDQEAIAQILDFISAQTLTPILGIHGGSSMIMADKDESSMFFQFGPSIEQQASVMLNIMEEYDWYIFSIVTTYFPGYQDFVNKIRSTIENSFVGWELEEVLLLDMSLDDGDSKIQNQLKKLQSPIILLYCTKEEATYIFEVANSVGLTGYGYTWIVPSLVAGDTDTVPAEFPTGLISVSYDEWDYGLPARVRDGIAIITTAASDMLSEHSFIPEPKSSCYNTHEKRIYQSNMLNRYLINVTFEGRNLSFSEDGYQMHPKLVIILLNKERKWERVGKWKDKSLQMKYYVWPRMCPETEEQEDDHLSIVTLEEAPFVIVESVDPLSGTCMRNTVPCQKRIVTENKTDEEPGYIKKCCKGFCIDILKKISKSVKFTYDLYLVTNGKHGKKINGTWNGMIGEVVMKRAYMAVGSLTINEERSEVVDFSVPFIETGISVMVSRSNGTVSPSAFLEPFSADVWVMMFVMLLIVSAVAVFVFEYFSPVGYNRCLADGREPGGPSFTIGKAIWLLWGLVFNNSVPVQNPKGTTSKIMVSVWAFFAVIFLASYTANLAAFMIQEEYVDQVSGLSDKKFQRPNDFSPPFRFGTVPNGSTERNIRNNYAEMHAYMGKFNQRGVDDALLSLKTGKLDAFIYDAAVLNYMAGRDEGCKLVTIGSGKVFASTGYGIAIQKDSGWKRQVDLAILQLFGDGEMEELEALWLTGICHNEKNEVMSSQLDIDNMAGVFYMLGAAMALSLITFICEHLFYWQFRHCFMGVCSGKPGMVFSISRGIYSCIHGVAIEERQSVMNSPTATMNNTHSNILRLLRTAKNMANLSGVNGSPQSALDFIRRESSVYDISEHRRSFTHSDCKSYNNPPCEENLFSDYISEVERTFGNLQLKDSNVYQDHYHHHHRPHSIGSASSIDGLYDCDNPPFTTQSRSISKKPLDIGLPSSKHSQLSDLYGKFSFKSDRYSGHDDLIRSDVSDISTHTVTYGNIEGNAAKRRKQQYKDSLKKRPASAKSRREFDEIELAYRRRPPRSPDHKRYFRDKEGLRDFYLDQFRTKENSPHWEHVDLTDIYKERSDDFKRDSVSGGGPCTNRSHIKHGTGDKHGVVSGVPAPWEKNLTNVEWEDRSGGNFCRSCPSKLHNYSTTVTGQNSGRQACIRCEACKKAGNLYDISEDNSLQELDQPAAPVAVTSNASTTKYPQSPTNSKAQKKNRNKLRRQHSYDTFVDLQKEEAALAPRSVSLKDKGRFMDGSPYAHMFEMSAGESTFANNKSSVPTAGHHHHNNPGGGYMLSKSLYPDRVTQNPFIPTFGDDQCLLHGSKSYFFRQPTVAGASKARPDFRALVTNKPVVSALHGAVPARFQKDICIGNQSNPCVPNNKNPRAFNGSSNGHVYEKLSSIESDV

| IC50 [1] | IC50 [3] | SMILES | other results |
| --- | --- | --- | --- |
| 0.486 µM |  | Cc1cc(-c2cnc3c(c2)n(Cc2ncccn2)c(=O)n3C)ccc1F [Example 49, 6-(4-Fluoro-3-methyl-phenyl)-3-methyl-1-(pyrimidin-2-ylmethyl)imidazo[4,5-b]pyridin-2-one] |  |
|  | 0.166 µM | Cn1c(=O)n(Cc2csnn2)c2cc(-c3ccc(C(F)F)s3)cnc21 [Example 562, 6-[5-(Difluoromethyl)-2-thienyl]-3-methyl-1-(thiadiazol-4-ylmethyl)imidazo[4,5-b]pyridin-2-one] |  |
|  | 0.006 µM | Cc1c(F)ccc(-c2cnc3c(c2)n(CC(=O)N(C)C)c(=O)n3C)c1F [Example 423, 2-[6-(2,4-Difluoro-3-methyl-phenyl)-3-methyl-2-oxo-imidazo[4,5-b]pyridin-1-yl]-N,N-dimethyl-acetamide] |  |
|  | 0.096 µM | Cn1c(=O)n(Cc2cccnc2)c2cc(-c3cccc(Cl)c3F)cnc21 [Example 359, 6-(3-Chloro-2-fluoro-phenyl)-3-methyl-1-(3-pyridylmethyl)imidazo[4,5-b]pyridin-2-one] |  |
| 1.9 µM |  | Cn1c(=O)n(Cc2ccncc2)c2cc(-c3ccc(F)c(F)c3)cnc21 [Example 58, 6-(3,4-Difluorophenyl)-3-methyl-1-(4-pyridylmethyl)imidazo[4,5-b]pyridin-2-one] |  |
| 1.7 µM |  | CN(C)C(=O)Cn1c(=O)n(C)c2ncc(-c3ccc(CO)s3)cc21 [Example 91, 2-[6-[5-(Hydroxymethyl)-2-thienyl]-3-methyl-2-oxo-imidazo[4,5-b]pyridin-1-yl]-N,N-dimethyl-acetamide] |  |
|  | 0.022 µM | Cc1cccc(-c2cnc3c(c2)n(CC(=O)N2CC(F)C2)c(=O)n3C)c1F [Example 405, 1-[2-(3-Fluoroazetidin-1-yl)-2-oxo-ethyl]-6-(2-fluoro-3-methyl-phenyl)-3-methyl-imidazo[4,5-b]pyridin-2-one] |  |
|  | 0.131 µM | Cn1c(=O)n(Cc2cncc(Cl)c2)c2cc(-c3cc(F)c(F)c(F)c3)cnc21 [Example 370, 1-[(5-Chloro-3-pyridyl)methyl]-3-methyl-6-(3,4,5-trifluorophenyl)imidazo[4,5-b]pyridin-2-one] |  |
| 0.015 µM |  | CN(C)C(=O)Cn1c(=O)n(C)c2ncc(-c3csc(C(F)F)c3)cc21 [Example 97, 2-[6-[5-(Difluoromethyl)-3-thienyl]-3-methyl-2-oxo-imidazo[4,5-b]pyridin-1-yl]-N,N-dimethyl-acetamide] |  |
| 2.08 µM |  | Cc1cc(C)cc(-c2cnc3[nH]c(=O)n(CCN4CC(F)C4)c3c2)c1 [Example 183, 6-(3,5-Dimethylphenyl)-1-[2-(3-fluoroazetidin-1-yl)ethyl]-3H-imidazo[4,5-b]pyridin-2-one] |  |
| 0.502 µM |  | Cc1cc(F)ccc1-c1cnc2[nH]c(=O)n(CCN3CCCC3)c2c1 [Example 177, 6-(4-Fluoro-2-methyl-phenyl)-1-(2-pyrrolidin-1-ylethyl)-3H-imidazo[4,5-b]pyridin-2-one] |  |
|  | 0.671 µM | Cc1noc(Cn2c(=O)n(C)c3ncc(-c4ccc(C)s4)cc32)n1 [Example 557, 3-Methyl-1-[(3-methyl-1,2,4-oxadiazol-5-yl)methyl]-6-(5-methyl-2-thienyl)imidazo[4,5-b]pyridin-2-one] |  |
| 0.133 µM |  | Cn1c(=O)n(Cc2cncnc2)c2cc(-c3cccc(C(F)(F)F)c3)cnc21 [Example 247, 3-Methyl-1-(pyrimidin-5-ylmethyl)-6-[3-(trifluoromethyl)phenyl]imidazo[4,5-b]pyridin-2-one] |  |
| 0.457 µM |  | Cc1noc(Cn2c(=O)n(C)c3ncc(-c4ccc(F)c(F)c4)cc32)n1 [Example 77, 6-(3,4-Difluorophenyl)-3-methyl-1-[(3-methyl-1,2,4-oxadiazol-5-yl)methyl]imidazo[4,5-b]pyridin-2-one] |  |
|  | 0.408 µM | CN(C)C(=O)Cn1c(=O)n(C)c2ncc(-c3cccc(F)c3F)cc21 [Example 425, 2-[6-(2,3-Difluorophenyl)-3-methyl-2-oxo-imidazo[4,5-b]pyridin-1-yl]-N,N-dimethyl-acetamide] |  |
| 0.011 µM |  | CCC(=O)Cn1c(=O)[nH]c2ncc(-c3ccc(F)c(C)c3F)cc21 [Example 30, 6-(2,4-Difluoro-3-methyl-phenyl)-1-(2-oxobutyl)-3H-imidazo[4,5-b]pyridin-2-one] |  |
| 0.159 µM |  | Cc1cc(F)ccc1-c1cnc2[nH]c(=O)n(CC(=O)NC3CC3)c2c1 [Example 36, N-Cyclopropyl-2-[6-(4-fluoro-2-methyl-phenyl)-2-oxo-3H-imidazo[4,5-b]pyridin-1-yl]acetamide] |  |
| 0.01 µM |  | Cn1c(=O)n(CC(=O)N2CC(F)C2)c2cc(-c3ccc(C(F)F)s3)cnc21 [Example 10, 6-[5-(Difluoromethyl)-2-thienyl]-1-[2-(3-fluoroazetidin-1-yl)-2-oxo-ethyl]-3-methyl-imidazo[4,5-b]pyridin-2-one] |  |

The next lines start with the compound.

| SMILES | IC50 [1] | IC50 [3] | other results |
| --- | --- | --- | --- |
| CCOc1ccc(F)cc1-c1cnc2[nH]c(=O)n(CC(=O)c3cccs3)c2c1 [Example 460, 6-(2-Ethoxy-5-fluoro-phenyl)-1-[2-oxo-2-(2-thienyl)ethyl]-3H-imidazo[4,5-b]pyridin-2-one] |  |  | IC50 [2]: 1.77 µM |
| Cc1ccc(-c2cnc3c(c2)n(CC(=O)N2CCC2)c(=O)n3C)s1 [Example 326, 1-[2-(Azetidin-1-yl)-2-oxo-ethyl]-3-methyl-6-(5-methyl-2-thienyl)imidazo[4,5-b]pyridin-2-one] |  | 0.022 µM |  |
| Cc1cc(F)ccc1-c1cnc2[nH]c(=O)n(Cc3cccc(C#N)c3)c2c1 [Example 479, 3-[[6-(4-Fluoro-2-methyl-phenyl)-2-oxo-3H-imidazo[4,5-b]pyridin-1-yl]methyl]benzonitrile] |  | 0.778 µM |  |
| COc1cccc(F)c1-c1cnc2[nH]c(=O)n(Cc3ccccc3C#N)c2c1 [Example 481, 2-[[6-(2-Fluoro-6-methoxy-phenyl)-2-oxo-3H-imidazo[4,5-b]pyridin-1-yl]methyl]benzonitrile] |  | 2.25 µM |  |
| O=c1[nH]c2ncc(-c3cccc(C(F)(F)F)c3)cc2n1CCN1CC(F)(F)C1 [Example 167, 1-[2-(3,3-Difluoroazetidin-1-yl)ethyl]-6-[3-(trifluoromethyl)phenyl]-3H-imidazo[4,5-b]pyridin-2-one] | 0.158 µM |  |  |
| COc1cccc(-c2cnc3[nH]c(=O)n(CC4CCCO4)c3c2)c1 (centres unmarked) [Example 475, 6-(3-Methoxyphenyl)-1-(tetrahydrofuran-2-ylmethyl)-3H-imidazo[4,5-b]pyridin-2-one] |  |  | IC50 [2]: 0.157 µM |
| Cc1noc(C)c1Cn1c(=O)[nH]c2ncc(-c3cccc(C#N)c3)cc21 [Example 513, 3-[1-[(3,5-Dimethylisoxazol-4-yl)methyl]-2-oxo-3H-imidazo[4,5-b]pyridin-6-yl]benzonitrile] |  |  | IC50 [2]: > 29 µM |
| Cc1cc(C)cc(-c2cnc3[nH]c(=O)n(Cc4ccccc4C#N)c3c2)c1 [Example 488, 2-[[6-(3,5-Dimethylphenyl)-2-oxo-3H-imidazo[4,5-b]pyridin-1-yl]methyl]benzonitrile] |  |  | IC50 [2]: 4.95 µM |
| Cc1cc(F)ccc1-c1cnc2[nH]c(=O)n(Cc3ccc(F)cc3)c2c1 [Example 492, 6-(4-Fluoro-2-methyl-phenyl)-1-[(4-fluorophenyl)methyl]-3H-imidazo[4,5-b]pyridin-2-one] |  |  | IC50 [2]: 6.12 µM |
| COc1ccc(-c2cnc3[nH]c(=O)n(Cc4ccccc4C#N)c3c2)cc1F [Example 491, 2-[[6-(3-Fluoro-4-methoxy-phenyl)-2-oxo-3H-imidazo[4,5-b]pyridin-1-yl]methyl]benzonitrile] |  | 0.053 µM |  |
| O=c1[nH]c2ncc(-c3cccc(C(F)(F)F)c3)cc2n1Cc1cccc(Cl)c1 [Example 21, 1-[(3-Chlorophenyl)methyl]-6-[3-(trifluoromethyl)phenyl]-3H-imidazo[4,5-b]pyridin-2-one] | 1.34 µM |  |  |
| COc1ccc(-c2cnc3[nH]c(=O)n(CC(=O)c4cccs4)c3c2)cc1 [Example 461, 6-(4-Methoxyphenyl)-1-[2-oxo-2-(2-thienyl)ethyl]-3H-imidazo[4,5-b]pyridin-2-one] |  | 0.054 µM |  |
| Cc1ccncc1Cn1c(=O)[nH]c2ncc(-c3ccc(F)c(C(F)(F)F)c3)cc21 [Example 314, 6-[4-Fluoro-3-(trifluoromethyl)phenyl]-1-[(4-methyl-3-pyridyl)methyl]-3H-imidazo[4,5-b]pyridin-2-one] | 0.049 µM |  |  |
| Cn1cnc(Cn2c(=O)[nH]c3ncc(-c4ccc(F)cc4)cc32)n1 [Example 141, 6-(4-Fluorophenyl)-1-[(1-methyl-1,2,4-triazol-3-yl)methyl]-3H-imidazo[4,5-b]pyridin-2-one] | 1.18 µM |  |  |
| Cc1cccnc1Cn1c(=O)[nH]c2ncc(-c3cccc(C(F)(F)F)c3)cc21 [Example 315, 1-[(3-Methyl-2-pyridyl)methyl]-6-[3-(trifluoromethyl)phenyl]-3H-imidazo[4,5-b]pyridin-2-one] | > 10 µM |  |  |
| O=c1[nH]c2ncc(-c3ccc(F)c(Cl)c3)cc2n1Cc1ccc(F)cc1 [Example 502, 6-(3-Chloro-4-fluoro-phenyl)-1-[(4-fluorophenyl)methyl]-3H-imidazo[4,5-b]pyridin-2-one] |  |  | IC50 [2]: 4.86 µM |
| O=C(Cn1c(=O)[nH]c2ncc(-c3cccc(C(F)(F)F)c3)cc21)NC1COC1 [Example 192, N-(Oxetan-3-yl)-2-[2-oxo-6-[3-(trifluoromethyl)phenyl]-3H-imidazo[4,5-b]pyridin-1-yl]acetamide] | 0.052 µM |  |  |
| Cc1cc(-c2cnc3[nH]c(=O)n(Cc4cnccc4C)c3c2)ccc1F [Example 277, 6-(4-Fluoro-3-methyl-phenyl)-1-[(4-methyl-3-pyridyl)methyl]-3H-imidazo[4,5-b]pyridin-2-one] | 0.077 µM |  |  |
| COc1cccc(-c2cnc3[nH]c(=O)n(Cc4ccccn4)c3c2)c1 [Example 288, 6-(3-Methoxyphenyl)-1-(2-pyridylmethyl)-3H-imidazo[4,5-b]pyridin-2-one] | 4.05 µM |  |  |
| O=c1[nH]c2ncc(-c3ccc(F)c(F)c3)cc2n1Cc1cncc(F)c1 [Example 298, 6-(3,4-Difluorophenyl)-1-[(5-fluoro-3-pyridyl)methyl]-3H-imidazo[4,5-b]pyridin-2-one] | 0.032 µM |  |  |
